PubChem BioAssay (NCI)
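Following 48 hours of exposure in 96-well plates, responses at five concentrations were used to interpolate endpoints linearly. Abbreviation: GI50, concentration required for 50% inhibition of growth. TGI marks complete inhibition of growth.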

Legend:
Test in all cases: DTP human tumour cell line panel, 48 h
COLO 205 colon = test system: COLO 205 colon
SK-MEL-2 melanoma = test system: SK-MEL-2 melanoma
BT-549 breast = test system: BT-549 breast
OVCAR-8 ovarian = test system: OVCAR-8 ovarian
SF-295 CNS = test system: SF-295 CNS
RXF 393 renal = test system: RXF 393 renal
IGROV1 ovarian = test system: IGROV1 ovarian
UO-31 renal = test system: UO-31 renal
A498 renal = test system: A498 renal
UACC-62 melanoma = test system: UACC-62 melanoma

Compound	GI50 (COLO 205 colon) [µM]	TGI (COLO 205 colon) [µM]	GI50 (SK-MEL-2 melanoma) [µM]	TGI (SK-MEL-2 melanoma) [µM]	GI50 (BT-549 breast) [µM]	TGI (BT-549 breast) [µM]	GI50 (OVCAR-8 ovarian) [µM]	TGI (OVCAR-8 ovarian) [µM]	GI50 (SF-295 CNS) [µM]	TGI (SF-295 CNS) [µM]	GI50 (RXF 393 renal) [µM]	TGI (RXF 393 renal) [µM]	GI50 (IGROV1 ovarian) [µM]	TGI (IGROV1 ovarian) [µM]	GI50 (UO-31 renal) [µM]	TGI (UO-31 renal) [µM]	GI50 (A498 renal) [µM]	TGI (A498 renal) [µM]	GI50 (UACC-62 melanoma) [µM]	TGI (UACC-62 melanoma) [µM]
Cc1nn2c(/C=C3/C(=O)Nc4cc(Cl)ccc43)c(-c3ccccc3)nc2s1	74.4	> 100	7.07	46.7	6.63	> 100	2.89	> 100	11.1	38.1	2.27	5.97	2.07	4.62	1.59	3.53	15.5	72		
Cn1cc(-c2ccc3nnc(Sc4ccc5ncccc5c4)n3n2)cn1	30.4	> 100	48.4	> 100	48.7	> 100	66.7	> 100	2.06	> 100	26.6	> 100	> 88.6	> 100	61.9	> 100	> 23	> 93.1	> 100	> 100
CCCCCC[C@H](C)Nc1nc2ccccc2c2occc12	34.4	> 100	14.8	32.6	4.38	18.5	10.8	26.3	6.01	25.5	12.6	30.6	0.787	13.2	4.55	19.2	11.3	25.8	11.6	24.1
O=C1/C(=C/c2ccccc2)CN(C(=O)CCN2CCCC2)C/C1=C\c1ccccc1		3.25		8.41		3.77		6.17		2.6		5.24		7.75		7.73		13		3.45
O=C(NCCc1ccccn1)OCc1nc2nc(Cl)nc(N3CCOCC3)c2[nH]1	2.44	6.12	4.16	15.6	2.22	6.83	3.17	15.4	4.96	17.4	1.12	2.4	1.57	2.98	1.28	2.55	2.64	10.4	1.53	3.03
O=c1/c(=C\c2ccc(F)cc2)sc2n1C(c1ccc(F)cc1)C1=C(N=2)c2ccc3ccccc3c2OCC1 (stereo unspecified)	> 100	> 100	> 100	> 100	> 64.5	> 100	> 100	> 100	> 100	> 100	> 100	> 100	> 100	> 100	> 100	> 100	> 100	> 100	> 100	> 100
O=c1[nH]c2ccccc2n1CCCN1CCC(n2c(=O)[nH]c3cc(Cl)ccc32)CC1		27.9		35.7		33.2		38.6				29.9		41.3		20.3		42.9		37.2
COC(=O)C1=C(C(=O)OC)C2(C)C=CC1O2 (stereo unspecified)		32.6		43.8		46		31.7				57.6		37.5		17.6		54		31.9
COc1cc(NC(=O)CCSc2nc3ccc(C)cc3c(=O)n2Cc2ccccc2)cc(OC)c1OC	> 100	> 100	4.4	27.5	5.02	> 100	5.01	> 100			3.48	16.6	27.7	> 100	11.6	> 100	15.8	60	15.7	> 100
c1ccc2c(-c3nc(-c4c[nH]c5ccncc45)cs3)c[nH]c2c1			2.09	3.95	8.82	21.3	1.97	4.33	1.58	3.2	1.55	3.03	1.33	3.83	1.21	2.62	10	22.1	1.67	3.33
Cc1ccc(N=Nc2c(O)ccc3ccccc23)cc1		> 100		> 100		> 100		> 100		> 100		> 100		> 100		> 100		> 100		> 100
COc1cc2c(cc1OCCCCCCN1CCN(CC(=O)Nc3ccc(Cl)cc3C(=O)c3ccccc3Cl)CC1)N=CC1CCCN1C2=O (stereo unspecified)	0.154	0.314	0.217	0.556	0.252	0.898	0.201	0.607	0.18	0.461	0.168	0.324	0.195	0.388	0.242	0.681	0.535	1	0.408	0.975
O=C1CCC(N2C(=O)c3ccccc3C2=O)C(=O)N1 (stereo unspecified)		> 100		> 100		> 100		> 100		> 100		> 100		> 100		> 100	> 100	> 100		> 100
COC(=O)C1C(O)C(C)C(O)C(C)C=C(C)C2=C3C(=C(C)C(=O)c4c(O)c(c(C)c(OC(C)=O)c43)NC(=O)C(C)=C/C=C\C(C)C(O)C(C)C1O)OCO2 (stereo unspecified)		63.6		74.2		39.2		> 100		> 100		89.8		> 100		> 100		99.4		74.5
COc1ccc(-c2nc(-c3nc4ccc(F)cc4[nH]3)c3ccccn23)cc1	78.1	> 100	10.1	54.8	4.84	22.9	3.76	23.4			6.05	45.3	6.63	47.2	6.99	56.2	3.83	31.8	5.41	36.1
